# Calls of active or inactive are those of the source.
# Key:
# [1] = target: Serine/threonine-protein phosphatase PP1-alpha catalytic subunit (Homo sapiens, UniProt P62136); experiment: PP1 phosphatase inhibitors, dose response, biochemical, fluorescence (AID 2403);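 further: phosphatase turnover of OMFP into fluorescent 3-O-methylfluorescein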
# [2] = Luminescence Cell-Based Dose Confirmation HTS to Identify Activators of 5'UTR Stem-Loop Driven Alpha-Synuclein mRNA Translation in H4 Neuroglioblastoma Cells. [Related pubchem assays: 1829 (Project Summary), 1814 (Primary HTS)]; format: functional
# [3] = target: T1, Mannose-6-phosphate isomerase (Homo sapiens, UniProt P34949); experiment: human PMI inhibitors, high substrate, primary screen, biochemical, fluorescence intensity, high mannose 6-phosphate (AID 1220)
# T1 sequence (P34949 whole entry): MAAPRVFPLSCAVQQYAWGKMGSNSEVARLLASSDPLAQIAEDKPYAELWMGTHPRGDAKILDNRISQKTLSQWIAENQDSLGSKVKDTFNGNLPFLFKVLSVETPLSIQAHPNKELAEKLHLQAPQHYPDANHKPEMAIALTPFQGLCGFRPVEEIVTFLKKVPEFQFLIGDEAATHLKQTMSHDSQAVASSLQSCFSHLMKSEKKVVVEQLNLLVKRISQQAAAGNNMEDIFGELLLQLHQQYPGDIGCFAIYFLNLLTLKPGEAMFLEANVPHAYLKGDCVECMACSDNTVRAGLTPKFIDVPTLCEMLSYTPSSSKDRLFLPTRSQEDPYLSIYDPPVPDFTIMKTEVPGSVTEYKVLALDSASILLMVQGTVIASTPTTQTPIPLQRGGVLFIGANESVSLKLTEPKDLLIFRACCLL
# H4 = experiment: Luminescence Cell-Based Dose Response HTS to Identify Activators of 5'UTR Stem-Loop Driven Prion Protein mRNA Translation in H4 Neuroglioblastoma Cells. [Related pubchem assays: 1829 (Project Summary), 1814 (Primary HTS)]; format: functional; details: Homo sapiens
# [4] = target: T2, Apoptotic protease-activating factor 1 (Homo sapiens, UniProt O14727); format: functional
# T2 sequence (O14727 whole entry): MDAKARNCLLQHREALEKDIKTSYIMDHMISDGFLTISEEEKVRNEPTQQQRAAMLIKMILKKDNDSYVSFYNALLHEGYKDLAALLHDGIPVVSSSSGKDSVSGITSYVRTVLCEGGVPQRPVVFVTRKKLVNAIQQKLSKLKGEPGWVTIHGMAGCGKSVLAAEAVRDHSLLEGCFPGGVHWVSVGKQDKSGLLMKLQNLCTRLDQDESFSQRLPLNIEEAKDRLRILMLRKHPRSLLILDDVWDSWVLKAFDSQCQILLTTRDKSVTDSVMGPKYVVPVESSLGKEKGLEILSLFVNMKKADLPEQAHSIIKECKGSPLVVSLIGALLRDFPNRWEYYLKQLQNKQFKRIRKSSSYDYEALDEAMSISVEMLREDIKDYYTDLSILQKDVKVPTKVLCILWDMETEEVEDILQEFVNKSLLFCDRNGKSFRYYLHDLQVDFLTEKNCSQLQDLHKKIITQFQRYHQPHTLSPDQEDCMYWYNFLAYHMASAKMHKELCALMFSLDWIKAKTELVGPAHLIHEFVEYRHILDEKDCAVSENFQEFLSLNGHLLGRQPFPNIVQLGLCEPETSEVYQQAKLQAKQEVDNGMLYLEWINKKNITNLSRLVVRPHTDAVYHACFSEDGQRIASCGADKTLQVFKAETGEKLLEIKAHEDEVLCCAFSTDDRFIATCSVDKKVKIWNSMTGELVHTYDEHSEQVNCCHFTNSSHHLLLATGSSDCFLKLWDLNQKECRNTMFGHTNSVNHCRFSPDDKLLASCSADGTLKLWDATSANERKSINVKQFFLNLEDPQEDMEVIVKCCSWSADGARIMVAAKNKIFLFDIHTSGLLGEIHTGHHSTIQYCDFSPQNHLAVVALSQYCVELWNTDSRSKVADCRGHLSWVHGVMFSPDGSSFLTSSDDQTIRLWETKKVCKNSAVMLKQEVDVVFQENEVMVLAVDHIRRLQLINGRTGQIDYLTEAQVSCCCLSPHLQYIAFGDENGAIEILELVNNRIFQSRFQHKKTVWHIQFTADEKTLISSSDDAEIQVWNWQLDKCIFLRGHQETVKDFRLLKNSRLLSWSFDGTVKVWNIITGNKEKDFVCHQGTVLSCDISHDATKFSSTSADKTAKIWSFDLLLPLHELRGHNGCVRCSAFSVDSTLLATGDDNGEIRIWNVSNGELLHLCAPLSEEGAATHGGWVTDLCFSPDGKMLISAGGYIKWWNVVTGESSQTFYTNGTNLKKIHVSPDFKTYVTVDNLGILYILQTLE
# [5] = Luminescence Cell-Based Dose Response HTS to Identify Activators of Luciferase Translation or Activity in H4 […] Cells. [Related pubchem assays: 1829 (Project Summary), 1814 (Primary HTS)]; format: functional
# [6] = target: Serine/threonine-protein phosphatase (Homo sapiens, UniProt Q9BPW0); experiment: Counterscreen for inhibitors of PP1: fluorescence-based biochemical high throughput dose response assay to identify inhibitors of Protein Phosphatase 5 (PP5). [Related pubchem assays: 2034 (Summary (PP5 inhibitors)), 1987 (PP5 inhibitors in singlate), 2235 (PP1 inhibitors in singlate)]
# Sequence of Serine/threonine-protein phosphatase (Q9BPW0 whole entry): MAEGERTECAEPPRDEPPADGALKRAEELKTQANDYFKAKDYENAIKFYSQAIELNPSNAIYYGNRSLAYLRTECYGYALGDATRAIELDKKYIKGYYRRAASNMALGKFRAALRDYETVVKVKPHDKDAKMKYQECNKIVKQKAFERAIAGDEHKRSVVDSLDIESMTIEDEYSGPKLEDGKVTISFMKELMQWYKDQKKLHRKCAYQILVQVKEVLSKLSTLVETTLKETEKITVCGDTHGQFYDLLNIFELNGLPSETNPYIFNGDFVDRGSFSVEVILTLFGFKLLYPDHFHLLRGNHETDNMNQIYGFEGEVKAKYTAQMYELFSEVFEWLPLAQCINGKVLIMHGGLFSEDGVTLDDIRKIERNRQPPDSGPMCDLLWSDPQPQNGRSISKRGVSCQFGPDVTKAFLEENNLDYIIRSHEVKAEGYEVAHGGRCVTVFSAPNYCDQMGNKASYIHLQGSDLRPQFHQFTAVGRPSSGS
# HEK293 = experiment: Fluorescence-based counterscreen for potentiators or agonists of NPY-Y1: cell-based high-throughput dose response assay for inhibitors of cyclic nucleotide gated ion channel (CNGC) activity. In this assay, the parental HEK293 cell line transfected with a cyclic-nucleotide gated ion channel (CNGC)-based cAMP sensor is used to measure inhibition of isoproterenol-induced CNGC …; format: functional; details: Homo sapiens
# [7] = target: T3, Neuropeptide Y receptor type 2 (Homo sapiens, UniProt P49146); experiment: Fluorescence-based counterscreen for agonists of NPY-Y1: cell-based high-throughput dose response assay for agonists of NPY-Y2.; format: functional
# T3 sequence (P49146 whole entry): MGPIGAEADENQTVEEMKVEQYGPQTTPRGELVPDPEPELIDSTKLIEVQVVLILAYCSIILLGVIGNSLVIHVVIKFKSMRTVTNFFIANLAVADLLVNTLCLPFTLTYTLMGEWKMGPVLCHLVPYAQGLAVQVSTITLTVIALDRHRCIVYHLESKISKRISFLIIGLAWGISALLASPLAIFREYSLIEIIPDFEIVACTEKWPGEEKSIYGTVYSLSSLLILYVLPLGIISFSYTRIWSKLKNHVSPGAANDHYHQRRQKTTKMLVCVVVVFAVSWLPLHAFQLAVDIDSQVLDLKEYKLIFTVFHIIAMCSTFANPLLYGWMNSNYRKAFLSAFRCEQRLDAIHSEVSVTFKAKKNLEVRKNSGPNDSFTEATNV
# [8] = target: T4, Neuropeptide Y receptor type 1 (Homo sapiens, UniProt P25929); experiment: Fluorescence-based dose response cell-based high-throughput screening assay for agonists of NPY-Y1. [Related pubchem assays: 1697 (Screening assay (NPY-Y1 agonists).), 1359 (Screening assay (NPY-Y2 potentiators or agonists).), 1304 (Screening assay (NPY-Y1 potentiators or agonists).), 1704 (Screening assay (CNGC inhibitors).), 1791 (Summary AID.)]; format: functional
# T4 sequence (P25929 whole entry): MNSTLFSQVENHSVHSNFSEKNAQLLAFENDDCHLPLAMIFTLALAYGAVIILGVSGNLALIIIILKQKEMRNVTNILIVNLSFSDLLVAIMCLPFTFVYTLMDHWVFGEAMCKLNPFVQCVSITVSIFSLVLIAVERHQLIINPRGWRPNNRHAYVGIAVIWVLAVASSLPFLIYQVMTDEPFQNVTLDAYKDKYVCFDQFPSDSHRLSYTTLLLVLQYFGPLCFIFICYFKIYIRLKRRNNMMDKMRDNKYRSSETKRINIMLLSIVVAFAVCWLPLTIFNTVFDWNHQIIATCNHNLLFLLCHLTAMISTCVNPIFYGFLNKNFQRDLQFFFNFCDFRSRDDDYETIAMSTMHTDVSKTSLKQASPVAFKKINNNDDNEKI
# [9] = target: T5, Alkaline phosphatase, tissue-nonspecific isozyme (Homo sapiens, UniProt P05186); experiment: TNAP enzyme inhibition by screening hits, dose response, selectivity assay for mouse IAP inhibitor project, biochemical, human TNAP, uHTS hits (AID 488906); format: functional
# T5 sequence (P05186 whole entry): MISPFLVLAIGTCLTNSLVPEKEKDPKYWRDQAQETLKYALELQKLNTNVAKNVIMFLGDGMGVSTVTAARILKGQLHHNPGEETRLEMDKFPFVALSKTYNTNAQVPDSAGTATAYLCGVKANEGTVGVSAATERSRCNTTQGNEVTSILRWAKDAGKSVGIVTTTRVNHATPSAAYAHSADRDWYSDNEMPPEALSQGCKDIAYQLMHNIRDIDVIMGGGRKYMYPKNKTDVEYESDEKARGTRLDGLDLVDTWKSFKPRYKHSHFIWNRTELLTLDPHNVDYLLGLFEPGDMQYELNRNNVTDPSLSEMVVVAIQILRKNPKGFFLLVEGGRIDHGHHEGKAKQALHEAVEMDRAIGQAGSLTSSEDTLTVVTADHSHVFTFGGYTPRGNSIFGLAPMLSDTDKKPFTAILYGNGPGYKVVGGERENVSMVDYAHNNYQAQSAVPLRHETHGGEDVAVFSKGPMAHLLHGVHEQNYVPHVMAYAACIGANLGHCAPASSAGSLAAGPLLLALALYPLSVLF
# Phospholipase A2 = Phospholipase A2 (Homo sapiens, UniProt P04054); format: functional;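 further: confirmatory dose-response counterscreen on phospholipase A2, testing hits that came from an ultra-high-throughput screen for ATG4B inhibitors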
# Sequence of Phospholipase A2 (P04054 whole entry): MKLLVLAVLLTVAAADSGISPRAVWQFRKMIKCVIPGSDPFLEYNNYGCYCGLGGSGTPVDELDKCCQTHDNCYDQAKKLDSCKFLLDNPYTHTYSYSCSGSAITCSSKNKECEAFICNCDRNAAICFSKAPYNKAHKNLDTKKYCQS
# Cysteine protease ATG4B = Cysteine protease ATG4B (Homo sapiens, UniProt Q9Y4P1); format: functional;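 further: Fluorescence-based dose-response confirmation assay measuring inhibition of ATG4B activity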
# Sequence of Cysteine protease ATG4B (Q9Y4P1 whole entry): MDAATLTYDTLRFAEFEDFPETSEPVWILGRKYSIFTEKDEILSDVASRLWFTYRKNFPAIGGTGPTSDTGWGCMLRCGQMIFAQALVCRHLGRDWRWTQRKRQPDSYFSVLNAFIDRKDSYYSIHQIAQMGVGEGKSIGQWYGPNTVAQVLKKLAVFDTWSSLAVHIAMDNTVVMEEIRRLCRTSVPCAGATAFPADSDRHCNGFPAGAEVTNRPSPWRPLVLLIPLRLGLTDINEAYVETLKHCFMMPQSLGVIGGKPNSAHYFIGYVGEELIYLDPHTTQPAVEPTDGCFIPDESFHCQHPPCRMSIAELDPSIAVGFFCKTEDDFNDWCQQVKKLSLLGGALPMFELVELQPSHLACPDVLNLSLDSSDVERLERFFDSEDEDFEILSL
# [10] = target: Intestinal-type alkaline phosphatase (Mus musculus, UniProt P24822); experiment: PubChem AID 488785; format: functional
# Sequence of Intestinal-type alkaline phosphatase (Mus musculus, UniProt P24822) (P24822 whole entry): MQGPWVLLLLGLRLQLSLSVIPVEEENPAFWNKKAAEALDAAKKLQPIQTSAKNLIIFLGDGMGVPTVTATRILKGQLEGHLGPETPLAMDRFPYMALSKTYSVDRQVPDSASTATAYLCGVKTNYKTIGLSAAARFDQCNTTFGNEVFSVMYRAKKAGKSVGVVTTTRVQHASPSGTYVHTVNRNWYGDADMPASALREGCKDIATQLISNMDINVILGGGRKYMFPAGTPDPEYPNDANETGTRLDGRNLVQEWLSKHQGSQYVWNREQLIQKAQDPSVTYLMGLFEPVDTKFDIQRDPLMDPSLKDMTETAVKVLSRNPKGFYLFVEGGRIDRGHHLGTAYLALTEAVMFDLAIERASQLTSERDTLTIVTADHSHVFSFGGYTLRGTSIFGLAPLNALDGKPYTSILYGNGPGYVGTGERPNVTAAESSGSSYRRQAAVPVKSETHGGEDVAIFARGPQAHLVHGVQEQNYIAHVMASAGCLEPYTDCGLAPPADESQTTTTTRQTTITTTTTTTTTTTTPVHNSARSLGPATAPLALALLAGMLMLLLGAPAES
# [11] = target: T5, Alkaline phosphatase, tissue-nonspecific isozyme
# [12] = target: Intestinal-type alkaline phosphatase (Homo sapiens, UniProt P09923); experiment: inhibition of human intestinal alkaline phosphatase – biochemical, dose response (AID 488876); format: functional
# Sequence of Intestinal-type alkaline phosphatase (Homo sapiens, UniProt P09923) (P09923 whole entry): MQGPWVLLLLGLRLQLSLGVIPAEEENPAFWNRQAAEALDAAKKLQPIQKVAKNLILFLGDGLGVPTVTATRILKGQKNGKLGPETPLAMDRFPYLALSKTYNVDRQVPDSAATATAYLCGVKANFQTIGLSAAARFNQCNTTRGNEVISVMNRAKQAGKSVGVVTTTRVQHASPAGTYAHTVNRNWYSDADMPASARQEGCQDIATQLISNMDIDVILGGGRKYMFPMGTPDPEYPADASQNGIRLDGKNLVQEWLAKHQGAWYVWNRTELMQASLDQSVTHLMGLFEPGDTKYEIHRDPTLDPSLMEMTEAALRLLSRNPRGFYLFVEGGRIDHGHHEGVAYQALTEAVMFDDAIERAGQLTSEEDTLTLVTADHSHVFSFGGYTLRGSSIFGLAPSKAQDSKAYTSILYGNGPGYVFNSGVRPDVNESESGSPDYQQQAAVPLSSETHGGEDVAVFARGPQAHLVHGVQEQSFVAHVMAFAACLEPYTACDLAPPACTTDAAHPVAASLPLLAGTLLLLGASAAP
# [13] = target: T6, Short transient receptor potential channel 4 (Mus musculus, UniProt Q9QUQ5); experiment: mouse TRPC4 channel inhibitors, dose response, cell-based, HEK293 TRPC4/mu-opioid, Fluo-4 calcium (AID 434942); format: functional;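 further: potency of inhibitors blocking the TRPC4 calcium response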
# T6 sequence (Q9QUQ5 whole entry): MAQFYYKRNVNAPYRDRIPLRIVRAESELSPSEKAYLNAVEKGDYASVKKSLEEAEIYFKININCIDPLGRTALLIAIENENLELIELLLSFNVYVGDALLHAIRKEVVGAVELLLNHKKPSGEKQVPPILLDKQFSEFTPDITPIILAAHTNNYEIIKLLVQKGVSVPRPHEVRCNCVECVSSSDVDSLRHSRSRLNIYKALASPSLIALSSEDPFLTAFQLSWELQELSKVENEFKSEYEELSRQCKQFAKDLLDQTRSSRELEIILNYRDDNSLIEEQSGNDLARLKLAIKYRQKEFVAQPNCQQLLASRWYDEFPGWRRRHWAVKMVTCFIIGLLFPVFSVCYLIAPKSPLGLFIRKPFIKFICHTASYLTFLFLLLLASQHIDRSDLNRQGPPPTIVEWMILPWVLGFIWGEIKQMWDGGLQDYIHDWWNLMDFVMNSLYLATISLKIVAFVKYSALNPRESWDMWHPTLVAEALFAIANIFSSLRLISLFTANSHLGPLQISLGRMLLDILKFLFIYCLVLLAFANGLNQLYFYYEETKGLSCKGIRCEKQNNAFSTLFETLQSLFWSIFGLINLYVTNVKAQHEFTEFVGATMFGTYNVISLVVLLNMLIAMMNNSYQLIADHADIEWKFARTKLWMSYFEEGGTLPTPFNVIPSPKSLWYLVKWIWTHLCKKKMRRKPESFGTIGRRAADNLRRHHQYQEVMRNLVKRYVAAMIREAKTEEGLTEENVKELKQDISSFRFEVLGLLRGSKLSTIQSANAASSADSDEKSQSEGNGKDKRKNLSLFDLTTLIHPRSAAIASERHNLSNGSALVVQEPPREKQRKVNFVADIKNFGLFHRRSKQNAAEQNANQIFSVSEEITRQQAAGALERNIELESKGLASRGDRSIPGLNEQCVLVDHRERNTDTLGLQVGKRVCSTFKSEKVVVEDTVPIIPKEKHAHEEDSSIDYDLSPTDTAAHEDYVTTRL
# Sequence of Serine/threonine-protein phosphatase PP1-alpha catalytic subunit (P62136 whole entry): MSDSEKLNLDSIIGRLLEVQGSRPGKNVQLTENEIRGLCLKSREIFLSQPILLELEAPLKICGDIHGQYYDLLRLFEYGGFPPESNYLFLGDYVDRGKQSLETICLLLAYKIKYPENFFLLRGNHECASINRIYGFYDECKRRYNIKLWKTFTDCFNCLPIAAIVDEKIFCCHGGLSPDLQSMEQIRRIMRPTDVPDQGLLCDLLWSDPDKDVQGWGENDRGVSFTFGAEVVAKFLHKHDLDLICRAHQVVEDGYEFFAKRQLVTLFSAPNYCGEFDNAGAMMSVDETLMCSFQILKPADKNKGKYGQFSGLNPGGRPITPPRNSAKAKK
smiles,measurement,setting,value
N#Cc1c(N2CCCC(O)C2)nc(N)c2c(N)nc3c(c12)CC(=O)N3C12CC3CC(CC(C3)C1)C2 (configuration not stated),IC50,[1],> 67 µM (not active)
same,EC50,[2],12.6 µM (active)
same,IC50,[3],> 50 µM (not active)
same,EC50,H4,> 120 µM (not active)
same,IC50,[4],73 µM (active)
same,EC50,[5],9.64 µM (active)
same,IC50,[6],29.5 µM (not active)
CC(C)c1ccc2[nH]c(O)c(N=NC(=O)c3cccc(S(=O)(=O)Nc4cccc(Cl)c4)c3)c2c1,IC50,HEK293,> 35.4 µM (not active)
same,EC50,[7],> 35.4 µM (not active)
same,EC50,[8],> 35.4 µM (not active)
Cc1ccc(CN2C3CCCC2CC(NC(=S)NCc2ccccc2)C3)cc1 (configuration not stated),IC50,[9],91.3 µM (active)
same,IC50,Phospholipase A2,7.96 µM (active)
same,IC50,Cysteine protease ATG4B,15.6 µM (active)
same,IC50,[10],5.23 µM (active)
same,EC50,[11],64.9 µM (not active)
same,IC50,[12],> 100 µM (inactive)
same,EC50,[13],2.66 µM (active)
